Consider 25 molecules from US9932303B2, “N-hydroxymethanesulfonamide nitroxyl donors” (Cardioxyl Pharmaceuticals, Inc., priority 2014, dated 2018).

The nature of data set [1]: In vitro stability in dog plasma. It counts as in vitro ADME. To be noted: pH 7.4, 37° C.; for half-life at 5 μM: male, read-out: T1/2 (minutes) Dog. How it is done: (§1) Certain compounds from Table 1 were tested for their stability in plasma. The assay system comprised (i) PBS, or plasma from rat, dog or human (at least 3 donors, male, pooled) at pH 7.4, and (ii) for tests conducted in plasma, an anticoagulant (sodium heparin or sodium citrate). Each test compound (5 μM) was incubated in PBS or plasma at 37° C. on a THERMOMIXER® with shaking Three samples (n=3) were taken at each of seven sampling time points: 0, 10, 30, 60, 90, 180 and 360 minutes. The samples were immediately combined with 3 volumes (i.e., 3 times the volume of PBS or plasma) of acetonitrile containing 1% formic acid and an internal standard to terminate the reaction. AB SCIEX API 3000 LC-MS/MS analysis of the test compounds was performed without a standard curve. Half-lives (T1/2) of the test compounds were determined from graphs of the percent remaining values using the peak area response ratio.

Data set [2] can be described thus: In vitro stability in human plasma. It counts as in vitro ADME. To be noted: pH 7.4, 37° C.; for half-life at 5 μM: male, read-out: T1/2 (minutes) Human. How it is done: as §1
Data set [3] is described as follows: In vitro stability in rat plasma. To be noted: pH 7.4, 37° C.; for half-life at 5 μM: male, read-out: T1/2 (minutes) Rat. It counts as in vitro ADME. The procedure: as §1
The subject of data set [4] is patients with systolic heart failure. Conditions: cited from earlier work.

In turn, `O=S(=O)(Cc1ccc(F)cc1)NO` [Compound 6, 1-(4-Fluorophenyl)-N-hydroxymethanesulfonamide] gave a melting point of 158 °C. Also, the half-life at 5 μM in data set [1] turned out to be 34 min.

The molecule `O=S(=O)(Cc1ccccc1F)NO` [Compound 14, 1-(2-Fluorophenyl)-N-hydroxymethanesulfonamide] showed a melting point of 118 °C. Also, the half-life at 5 μM in data set [1] came to 31 min.

For `O=S(=O)(Cc1ccc(F)cc1F)NO` [Compound 8, 1-(2,4-Difluorophenyl)-N-hydroxymethanesulfonamide], the melting point stood at 166 °C. Besides, the half-life at 5 μM in data set [2] is 31 min. In data set [1], the half-life at 5 μM came to 46 min. In data set [3], the half-life at 5 μM amounted to 36 min.

With `O=S(=O)(Cc1ccccc1C(F)(F)F)NO` [Compound 7, N-Hydroxy-1-[2-(trifluoromethyl)phenyl]methanesulfonamide], the melting point was determined as 123 °C. The half-life at 5 μM in data set [1] came out at 25 min.

With `O=S(=O)(Cc1c(F)cccc1Cl)NO` [Compound 19, 1-(2-Chloro-6-fluorophenyl)-N-hydroxymethanesulfonamide], the melting point turned out to be 127 °C.

In the case of `O=S(=O)(Cc1cccc(Cl)c1)NO` [Compound 3, 1-(3-Chlorophenyl)-N-hydroxymethanesulfonamide], the melting point was 150 °C. Moreover, the half-life at 5 μM in data set [2] amounted to 52 min. Further, the half-life at 5 μM in data set [1] is 70 min. Besides, in data set [3], the half-life at 5 μM is 40 min.

Take `O=S(=O)(Cc1ccc(C(F)(F)F)cc1)NO` [Compound 18, N-Hydroxy-1-[4-(trifluoromethyl)phenyl]methanesulfonamide]: the melting point is 156 °C. Also, the half-life at 5 μM in data set [2] came out at 33 min. The half-life at 5 μM in data set [1] stood at 74 min. Besides, in data set [3], the half-life at 5 μM is 42 min.

`O=S(=O)(Cc1cccc(F)c1)NO` [Compound 13, 1-(3-Fluorophenyl)-N-hydroxymethanesulfonamide]: the melting point amounted to 109 °C. For the same molecule, the half-life at 5 μM in data set [1] amounted to 42 min.

As to `O=S(=O)(Cc1ccc(Cl)cc1Cl)NO` [Compound 11, 1-(2,4-Dichlorophenyl)-N-hydroxymethanesulfonamide], the melting point turned out to be 158 °C. In addition, the half-life at 5 μM in data set [1] is 45 min.

Take `O=S(=O)(Cc1ccc(Cl)c(Cl)c1)NO` [Compound 12, 1-(3,4-Dichlorophenyl)-N-hydroxymethanesulfonamide]: the melting point turned out to be 175 °C. Further, the half-life at 5 μM in data set [2] was found to be 34 min. Besides, in data set [1], the half-life at 5 μM turned out to be 60 min. Further, the half-life at 5 μM in data set [3] came to 54 min.

As to `O=S(=O)(Cc1cc(Cl)ccc1Cl)NO` [Compound 10, 1-(2,5-Dichlorophenyl)-N-hydroxymethanesulfonamide], the melting point is 158 °C. The half-life at 5 μM in data set [2] turned out to be 12 min. Also, in data set [1], the half-life at 5 μM is 27 min. Further, the half-life at 5 μM in data set [3] amounted to 12 min.

For the molecule `O=S(=O)(Cc1ccc2oncc2c1)NO` [Compound 26, 1-(Benzo[d]isoxazol-5-yl)-N-hydroxymethanesulfonamide], the melting point amounted to 117 °C.

The molecule `O=S(=O)(Cc1cccc(Br)c1)NO` [Compound 15, 1-(3-Bromophenyl)-N-hydroxymethanesulfonamide] gave a melting point of 161 °C. Further, in data set [1], the half-life at 5 μM is 45 min.

`O=S(=O)(Cc1noc2ccccc12)NO` [Compound 22, 1-1,2-Benzoxazol-3-yl-N-hydroxymethanesulfonamide] registered a melting point of 143 °C. Further, in data set [2], the half-life at 5 μM came out at 25 min. The half-life at 5 μM in data set [1] is 21 min. Further, the half-life at 5 μM in data set [3] came to 18 min.

`O=S(=O)(NO)C1(c2ccc(Cl)cc2)CC1` [Compound 29, 1-(4-Chlorophenyl)-N-hydroxycyclopropane-1-sulfonamide]: the melting point was determined as 138 °C.

Turning to `CC(C)(c1ccc(Cl)cc1)S(=O)(=O)NO` [Compound 28, 2-(4-Chlorophenyl)-N-hydroxypropane-2-sulfonamide], in data set [2] (5 μM), the “T1/2 (minutes) Human” value turned out to be 37 min. Further, the “T1/2 (minutes) Dog” value in data set [1] (5 μM) was found to be 26 min. The “T1/2 (minutes) Rat” value in data set [3] (5 μM) was determined as 48 min.

For `O=S(=O)(Cc1cc(F)cc(F)c1)NO` [Compound 20, 1-(3,5-Difluorophenyl)-N-hydroxymethanesulfonamide], the melting point stood at 136 °C. Further, in data set [1], the half-life at 5 μM came to 33 min.

`Cc1cccc(CS(=O)(=O)NO)c1` [Compound 5, N-Hydroxy-1-(3-methylphenyl)methanesulfonamide] had a melting point of 98 °C. Further, the half-life at 5 μM in data set [2] amounted to 81 min. Besides, the half-life at 5 μM in data set [1] was 55 min. Besides, the half-life at 5 μM in data set [3] came out at 61 min.

Take `O=S(=O)(Cc1c(Cl)cccc1Cl)NO` [Compound 21, 1-(2,6-Dichlorophenyl)-N-hydroxymethanesulfonamide]: the melting point is 140 °C.

Molecule `O=S(=O)(Cc1cc(F)ccc1F)NO` [Compound 9, 1-(2,5-Difluorophenyl)-N-hydroxymethanesulfonamide] showed a melting point of 125 °C. Moreover, the half-life at 5 μM in data set [1] is 30 min.

Turning to `O=S(=O)(Cc1cccc(C(F)(F)F)c1)NO` [Compound 17, N-Hydroxy-1-[3-(trifluoromethyl)phenyl]methanesulfonamide], the melting point amounted to 132 °C. In addition, the half-life at 5 μM in data set [1] is 29 min.

For the molecule `CC(c1ccc(Cl)cc1)S(=O)(=O)NO` (centres unmarked) [Compound 27, 1-(4-Chlorophenyl)-N-hydroxyethanesulfonamide], the melting point worked out at 129 °C.

As to `O=S(=O)(Cc1ccc(Br)cc1)NO` [Compound 16, 1-(4-Bromophenyl)-N-hydroxymethanesulfonamide], the melting point amounted to 160 °C. The half-life at 5 μM in data set [1] amounted to 42 min.

For `CS(=O)(=O)c1ccccc1S(=O)(=O)NO` [CXL-1020, N-hydroxy-2-methanesulfonylbenzene-1-sulfonamide], the side effects result in data set [4] (at threshold doses needed to produce hemodynamic effects, intravenous) was “unacceptable levels of inflammatory irritation at and distal to the intravenous insertion site”. Also, the hemodynamic effects result in data set [4] (patients with systolic heart failure, intravenously as an aqueous solution at pH=4) is “reduced both left and right heart filling pressures and systemic vascular resistance, while increasing cardiac and stroke volume index”.

Consider `O=S(=O)(Cc1ccccc1Cl)NO` [Compound 4, 1-(2-Chlorophenyl)-N-hydroxymethanesulfonamide], for which the melting point worked out at 124 °C. In data set [2], the half-life at 5 μM is 28 min. For the same molecule, the half-life at 5 μM in data set [1] amounted to 36 min. In addition, the half-life at 5 μM in data set [3] came out at 38 min.
